Assays:
[1] = system: C. difficile; conditions: treatment failures of C. difficile infection after use of antibiotics; cited from earlier work
Description: Approximately 223,900 C. difficile infections and 12,800 resulting deaths were reported in the USA in 2017 [17]. Treatment failures and recurrences of infection after the use of antibiotics are increasingly common, with a 2–38% failure rate for vancomycin and 8–50% for metronidazole. A more virulent strain of C. d ...

[2] = target: T1, α-chymotrypsin (Bos taurus, UniProt P00766); assay: Enzyme degradation of lacticin 3147 by α-chymotrypsin (activity, MALDI-TOF); type: in vitro ADME; conditions: 3 h incubation, n = 3
T1 construct: purchased Sigma-Aldrich Ireland Ltd
Method: (§1) Lacticin 3147 production was confirmed by matrix-assisted laser desorption ionization-time of flight (MALDI-TOF) mass spectrometry using sinapinic acid as the matrix. About 0.7 μl of the matrix solution (sinapinic acid, 4 mg/ml in 50% acetone/50% methanol) was added to the target plate and left to evaporate (30 s) at ambient conditions. Individual peptides (Ltnα or Ltnβ) were resuspended in 70% IPA and mixed at a 1:1 volume ratio with a 10-mg/ml stock solution of sinapinic acid in 60% ACN with 0.1% TFA. About 0.3 μl of this peptide-matrix solution was then added to the matrix layer previously applied to the plate and evaporated at ambient conditions. The plate was inserted into a MALDI-TOF Ultraflex mass spectrometer (Bruker) and analysed using reflectron positive 700–3500 Da mode. 100 shots were fired at 88% intensity. This method was also used for the analyses of samples from the enzyme degradation studies.
(§2) Trypsin and α-chymotrypsin stock solutions (50 mg/ml) were resuspended in water. Pepsin (50 mg/ml) was resuspended in 0.02 M HCL. About 1 mg/ml individual solutions of Ltnα and Ltnβ in 70% IPA were filtered and diluted (1 in 20) in sterile PBS to give a final peptide concentration of 50 µg/ml. After this, 5.3 µl Ltnα and 4.6 µl Ltnβ were added to the same well of a 96-well plate. The pH of the lacticin 3147-pepsin solution was 2.29. Control wells consisting of Ltnα and Ltnβ together, Ltnα alone, and Ltnβ alone with no enzyme were included. The 96-well plate was incubated for 3 h at 37 °C to allow the enzyme to act. After incubation, the wells were filled to 50 μl with PBS and 150 μl of diluted bacterial cell culture (L. monocytogenes at an OD of 0.1) was added to each well. The final peptide concentration of 400 nM (1.31 µg/ml Ltnα, 1.14 µg/ml Ltnβ) was obtained when the wells were filled to 200 µl. […] The effect of the proteases pepsin, α-chymotrypsin, and trypsin on the lacticin 3147 peptides was determined by MALDI-TOF mass spectrometry. […] After 3 h, 1 µl was removed from each sample and it was analysed by MALDI-TOF mass spectrometry. […]

[3] = target: T2, pepsin (Sus scrofa, UniProt P00791); assay: Enzyme degradation of lacticin 3147 by pepsin (activity, MALDI-TOF, RP-HPLC); type: in vitro ADME; conditions: 3 h; for intact peptide after incubation with pepsin (MALDI-TOF): 25 mg/ml pepsin, 13.38 µg/ml Ltnα, 11.86 µg/ml Ltnβ, pH 2.29, n = 3; for concentration with versus without pepsin (RP-HPLC): 60 mg/ml pepsin, 62.5 µg/ml peptide, 37 °C, RP-HPLC UV 214 nm
T2 construct: purchased Sigma-Aldrich Ireland Ltd
T2 sequence (P00791 60-385): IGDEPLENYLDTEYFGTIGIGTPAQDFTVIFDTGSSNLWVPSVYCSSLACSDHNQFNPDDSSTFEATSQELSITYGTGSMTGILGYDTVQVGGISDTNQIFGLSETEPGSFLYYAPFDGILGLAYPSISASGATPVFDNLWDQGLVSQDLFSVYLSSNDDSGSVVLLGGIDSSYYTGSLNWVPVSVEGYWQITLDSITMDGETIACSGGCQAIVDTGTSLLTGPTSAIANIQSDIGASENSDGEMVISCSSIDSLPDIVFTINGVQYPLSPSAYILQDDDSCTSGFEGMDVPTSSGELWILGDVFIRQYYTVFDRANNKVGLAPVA
Method: as §1
All lacticin 3147 samples were filtered through a 0.2-µm PES filter before analysis by RP-HPLC using an Agilent 1200 Infinity Series HPLC (Agilent Technologies, USA). The HPLC separations were carried out on an Aeris 3.6 µm Peptide 100 Å 250 × 4.6 mm, liquid chromatography column with a flow rate of 0.8 ml/min, and with 0.1% trifluoroacetic acid (TFA) in water as aqueous phase-A and 0.1% TFA in acetonitrile (ACN) as organic phase-B. The total run time was 51 min. The mobile phase started with 30:70 A:B for 3 min and change linearly to 35:65 A:B over 30 min. The organic phase was then adjusted to 100% within 1 min and continued to flow for 5 min. After this, the mobile phase returned to the initial ratio to stabilize the chromatographic system. The detector was set at 214 nm. The peak area (mAU) was plotted against the concentration (1.56–500 µg/ml) to make a calibration curve. The coefficients of determination (R^2 values) were 0.9963 and 0.9983 for Ltnα and Ltnβ respectively. This method was subsequently used for quantitative analysis of Ltnα and Ltnβ.
as §2, with “µl. Blanks were set up in triplicate with media only and PBS only. The three control wells were also set up with bacterial culture and each enzyme only.” for “µl.”
Pepsin’s effect on lacticin 3147 was also investigated by RP-HPLC. […] After incubation, aliquots were taken, filtered, and analysed by RP-HPLC to determine if pepsin degrades Ltnα or Ltnβ to any extent.

[4] = system: trypsin; assay: Enzyme degradation of lacticin 3147 by trypsin (activity, MALDI-TOF); type: in vitro ADME; conditions: 3 h incubation, n = 3
Method: as §1
Trypsin and α-chymotrypsin stock solutions (50 mg/ml) were resuspended in water. Pepsin (50 mg/ml) was resuspended in 0.02 M HCL. […] The effect of the proteases pepsin, α-chymotrypsin, and trypsin on the lacticin 3147 peptides was determined by MALDI-TOF mass spectrometry. […] After 3 h, 1 µl was removed from each sample and it was analysed by MALDI-TOF mass spectrometry. […]

| SMILES | failure rate [1] | intact peptide after incubation with α-chymotrypsin (MALDI-TOF) [2] | intact peptide after incubation with pepsin (MALDI-TOF) [3] | concentration with versus without pepsin (RP-HPLC) [3] | intact peptide after incubation with trypsin (MALDI-TOF) [4] |
| --- | --- | --- | --- | --- | --- |
| CN[C@H](CC(C)C)C(=O)N[C@H]1C(=O)N[C@@H](CC(N)=O)C(=O)N[C@H]2C(=O)N[C@H]3C(=O)N[C@H](C(=O)N[C@H](C(=O)O)c4cc(O)cc(O)c4-c4cc3ccc4O)[C@H](O)c3ccc(c(Cl)c3)Oc3cc2cc(c3O[C@@H]2O[C@H](CO)[C@@H](O)[C@H](O)[C@H]2O[C@H]2C[C@](C)(N)[C@H](O)[C@H](C)O2)Oc2ccc(cc2Cl)[C@H]1O [vancomycin] | 2–38% | – | – | – | – |
| CC=C(NC(=O)C(=O)CC)C(=O)N1CCC[C@H]1C(=O)N[C@@H](C)C(=O)NC(=CC)C(=O)N1CCC[C@H]1C(=O)N[C@@H](C)C(=O)N[C@H](C(=O)N[C@H](C)C(=O)N[C@H](C(=O)N[C@@H](CC(C)C)C(=O)N[C@H](C)C(=O)N[C@@H](C)C(=O)N[C@@H](Cc1ccc(O)cc1)C(=O)N[C@H](C(=O)NC1CSCC(C(=O)N2CCC[C@H]2C(=O)NC2C(=O)N[C@@H]([C@@H](C)O)C(=O)N[C@@H](CCCCN)C(=O)NC(C(=O)NC3C(=O)N[C@@H](CCCNC(=N)N)C(=O)N[C@@H](C)C(=O)NC(C(=O)O)CSC3C)CSC2C)NC(=O)[C@H]([C@@H](C)O)NC(=O)[C@H](CC(N)=O)NC(=O)[C@H]([C@@H](C)O)NC1=O)[C@@H](C)CC)[C@@H](C)CC)[C@@H](C)CC (stereo partly shown) [Ltnβ] | – | no masses corresponding to intact | Masses corresponding to Ltnα and Ltnβ can be seen | not significantly different | no masses corresponding to intact |
| Cc1ncc([N+](=O)[O-])n1CCO [metronidazole] | 8–50% | – | – | – | – |
| CC=C(NC(=O)C1CSCC(N)C(=O)N1)C(=O)N[C@@H](CC(N)=O)C(=O)NC(=CC)C(=O)N[C@@H](Cc1ccccc1)C(=O)N[C@H](C)C(=O)N[C@@H](CC(C)C)C(=O)NC1CSCC(C(=O)NC2C(=O)N[C@@H](CC(C)C)C(=O)NC3C(=O)N[C@@H](Cc4c[nH]cn4)C(=O)N[C@@H](CCC(=O)O)C(=O)NC(CSC2C)C(=O)N[C@@H](CCSC)C(=O)N[C@@H](C)C(=O)N[C@@H](Cc2c[nH]c4ccccc24)C(=O)NC(C(=O)N[C@@H](CCCCN)C(=O)O)CSC3C)NC(=O)[C@H](Cc2c[nH]c3ccccc23)NC(=O)[C@H](C)NC(=O)CNC(=O)[C@H](CC(N)=O)NC(=O)[C@H](CC(N)=O)NC(=O)CNC(=O)[C@H](Cc2c[nH]c3ccccc23)NC(=O)[C@H](Cc2ccc(O)cc2)NC(=O)[C@H](CC(=O)O)NC1=O (stereo partly shown) [Ltnα] | – | no masses corresponding to intact | Masses corresponding to Ltnα and Ltnβ can be seen | not significantly different | no masses corresponding to intact |

— PMC8236048, “Pharmaceutical design of a delivery system for the bacteriocin lacticin 3147” (Drug Delivery and Translational Research, 2021)
